Data set [1] concerns the target Gamma-secretase. The experiment in a line: Inhibition of gamma-secretase in HEK293 cell membranes using SPC99-Lon as substrate assessed as formation of amyloid beta 40 after 1 hr by electrochemiluminescence-based immunoassay. Set-up: species or system Homo sapiens.
The target in data set [2] is T1, Cytochrome P450 2D6 (Homo sapiens, UniProt P10635). As to the kind of experiment: Inhibition of CYP2D6 (unknown origin) preincubated with protein for 30 mins followed by substrate addition. The format is ADME.
T1 sequence (P10635 whole entry): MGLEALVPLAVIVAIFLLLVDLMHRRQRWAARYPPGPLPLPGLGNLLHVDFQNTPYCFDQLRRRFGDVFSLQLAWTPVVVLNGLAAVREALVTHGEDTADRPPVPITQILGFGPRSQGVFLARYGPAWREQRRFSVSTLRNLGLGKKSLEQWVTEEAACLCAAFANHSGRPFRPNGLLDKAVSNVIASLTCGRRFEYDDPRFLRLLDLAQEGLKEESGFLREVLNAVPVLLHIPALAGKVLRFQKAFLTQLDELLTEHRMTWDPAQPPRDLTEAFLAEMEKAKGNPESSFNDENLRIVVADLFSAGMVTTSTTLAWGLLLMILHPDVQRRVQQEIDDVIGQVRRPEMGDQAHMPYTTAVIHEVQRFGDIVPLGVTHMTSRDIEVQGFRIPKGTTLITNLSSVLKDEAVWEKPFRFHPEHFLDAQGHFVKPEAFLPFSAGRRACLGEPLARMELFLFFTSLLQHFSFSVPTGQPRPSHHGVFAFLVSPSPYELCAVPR
For data set [3], the target named is T2, Cytochrome P450 2C9 (Homo sapiens, UniProt P11712). As to the kind of experiment: Inhibition of CYP2C9 (unknown origin) co-incubated with substrate and protein. The format is ADME.
T2 sequence (P11712 whole entry): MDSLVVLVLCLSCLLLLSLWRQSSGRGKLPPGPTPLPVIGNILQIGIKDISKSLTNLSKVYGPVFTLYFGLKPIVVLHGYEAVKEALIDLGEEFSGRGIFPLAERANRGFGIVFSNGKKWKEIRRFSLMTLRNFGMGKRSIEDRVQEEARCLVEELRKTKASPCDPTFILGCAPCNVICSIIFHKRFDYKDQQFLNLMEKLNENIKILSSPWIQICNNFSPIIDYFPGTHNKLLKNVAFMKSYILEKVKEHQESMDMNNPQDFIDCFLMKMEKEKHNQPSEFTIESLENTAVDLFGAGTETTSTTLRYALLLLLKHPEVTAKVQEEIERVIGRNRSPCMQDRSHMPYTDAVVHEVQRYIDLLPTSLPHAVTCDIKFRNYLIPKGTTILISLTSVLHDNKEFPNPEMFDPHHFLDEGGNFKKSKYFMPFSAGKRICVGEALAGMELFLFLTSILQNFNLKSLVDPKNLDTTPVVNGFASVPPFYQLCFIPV
For data set [4], the target named is T3, Cytochrome P450 3A4 (Homo sapiens, UniProt P08684). The experiment in a line: Inhibition of CYP3A4 (unknown origin) co-incubated with substrate and protein. The format is ADME.
T3 sequence (P08684 whole entry): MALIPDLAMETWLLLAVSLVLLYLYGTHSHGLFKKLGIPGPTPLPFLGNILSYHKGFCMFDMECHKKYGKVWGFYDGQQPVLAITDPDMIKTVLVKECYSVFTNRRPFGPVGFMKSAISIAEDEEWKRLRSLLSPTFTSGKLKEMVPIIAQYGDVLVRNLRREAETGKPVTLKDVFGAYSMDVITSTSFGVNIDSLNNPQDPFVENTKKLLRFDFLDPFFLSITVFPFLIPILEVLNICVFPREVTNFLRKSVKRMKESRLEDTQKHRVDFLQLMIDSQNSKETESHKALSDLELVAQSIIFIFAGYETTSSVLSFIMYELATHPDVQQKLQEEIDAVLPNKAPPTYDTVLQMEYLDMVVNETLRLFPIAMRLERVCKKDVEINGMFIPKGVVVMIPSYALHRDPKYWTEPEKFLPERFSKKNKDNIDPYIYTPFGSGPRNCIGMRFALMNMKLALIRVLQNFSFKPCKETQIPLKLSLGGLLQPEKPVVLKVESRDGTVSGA
Data set [5] concerns the target T1, Cytochrome P450 2D6. The experiment in a line: Inhibition of CYP2D6 (unknown origin) co-incubated with substrate and protein. The format is ADME.
Data set [6] addresses T3, Cytochrome P450 3A4. As to the kind of experiment: Inhibition of CYP3A4 (unknown origin) preincubated with protein for 30 mins followed by substrate addition. The format is ADME.
The target of data set [7] is T2, Cytochrome P450 2C9. The experiment in a line: Inhibition of CYP2C9 (unknown origin) preincubated with protein for 30 mins followed by substrate addition. The format is ADME.
The target of data set [8] is Voltage-gated inwardly rectifying potassium channel KCNH2 (Homo sapiens, UniProt Q12809). As to the kind of experiment: Inhibition of human ERG.
Chain of Voltage-gated inwardly rectifying potassium channel KCNH2 (Q12809 whole entry): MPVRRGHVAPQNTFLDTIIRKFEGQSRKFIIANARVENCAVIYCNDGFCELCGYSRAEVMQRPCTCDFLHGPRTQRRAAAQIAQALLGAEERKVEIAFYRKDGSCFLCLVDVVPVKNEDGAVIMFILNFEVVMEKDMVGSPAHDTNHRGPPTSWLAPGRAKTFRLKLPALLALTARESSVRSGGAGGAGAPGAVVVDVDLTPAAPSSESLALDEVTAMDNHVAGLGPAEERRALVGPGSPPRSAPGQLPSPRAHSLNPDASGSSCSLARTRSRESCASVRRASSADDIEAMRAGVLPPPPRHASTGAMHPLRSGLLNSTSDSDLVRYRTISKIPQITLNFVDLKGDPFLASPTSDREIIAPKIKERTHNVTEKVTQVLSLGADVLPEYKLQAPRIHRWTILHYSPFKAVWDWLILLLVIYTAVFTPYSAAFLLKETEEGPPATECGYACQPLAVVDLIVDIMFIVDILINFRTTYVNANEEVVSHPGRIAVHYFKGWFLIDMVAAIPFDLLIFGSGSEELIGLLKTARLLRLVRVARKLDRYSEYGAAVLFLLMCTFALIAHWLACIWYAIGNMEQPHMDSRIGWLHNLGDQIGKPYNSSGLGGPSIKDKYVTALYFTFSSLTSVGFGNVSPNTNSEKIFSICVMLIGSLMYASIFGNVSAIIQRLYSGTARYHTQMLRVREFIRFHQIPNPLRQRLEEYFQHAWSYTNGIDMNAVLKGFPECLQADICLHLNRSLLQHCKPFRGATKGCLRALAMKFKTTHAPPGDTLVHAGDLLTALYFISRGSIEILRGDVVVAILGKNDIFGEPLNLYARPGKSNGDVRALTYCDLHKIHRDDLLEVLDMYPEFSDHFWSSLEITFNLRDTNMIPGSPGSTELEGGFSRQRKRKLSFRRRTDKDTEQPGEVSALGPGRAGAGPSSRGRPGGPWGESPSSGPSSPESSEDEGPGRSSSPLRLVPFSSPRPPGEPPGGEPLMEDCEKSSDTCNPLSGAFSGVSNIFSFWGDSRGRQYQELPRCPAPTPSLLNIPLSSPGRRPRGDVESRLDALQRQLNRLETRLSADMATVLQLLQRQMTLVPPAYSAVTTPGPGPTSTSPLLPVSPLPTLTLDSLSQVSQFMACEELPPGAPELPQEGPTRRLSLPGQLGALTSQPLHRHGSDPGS
In data set [9] the target is Gamma-secretase. The experiment in a line: Inhibition of gamma-secretase in HEK293 cells using human APP Swedish/London double mutant as substrate assessed as formation of amyloid beta 42 after 5 to 6 hrs by sandwich immunoassay. The format is cell-based.
The target in data set [10] is Gamma-secretase. As to the kind of experiment: Inhibition of gamma-secretase in HEK293 cells using human APP Swedish/London double mutant as substrate assessed as formation of amyloid beta 40 after 5 to 6 hrs by sandwich immunoassay. The format is cell-based.
Data set [11] relates to Rattus norvegicus. As to the kind of experiment: (§1) AUC (0 to 6 hrs) in Sprague-Dawley rat at 10 mg/kg, po by LC-MS/MS analysis. The format is ADME, organism-based. Set-up: time < 6 hr, dose 10 mg/kg, route oral. Conditions: in vivo, 6 h, BLD = below limit of detection.
In data set [12] the test system is Rattus norvegicus. As to the kind of experiment: Antialzheimer activity in Sprague-Dawley rat assessed as reduction of total amylod beta level at 10 mg/kg, po after 3 hrs by immunoassay relative to vehicle-treated control. The format is functional, organism-based.
The species entered for the next data set is Homo sapiens. As to the kind of experiment: Selectivity ratio of IC50 for human presenilin-2 to IC50 for human presenilin-1.
Data set [13] deals with Rattus norvegicus. As to the kind of experiment: Antialzheimer activity in Sprague-Dawley rat assessed as reduction of total amylod beta level in plasma at 10 mg/kg, po after 3 hrs by immunoassay relative to vehicle-treated control. The format is functional. Set-up: scale not given: the % may be the effect or the level left.
A short description of data set [14]: as §1. The format is ADME, organism-based. Set-up: time < 6 hr, dose 10 mg/kg, route oral. To be noted: Sprague-Dawley, in vivo.
A short description of data set [15]: Ratio of drug level in brain to plasma in Sprague-Dawley rat at 10 mg/kg, po. To be noted: brain and plasma, read-out: BPR. The format is ADME, organism-based.
Data set [16] relates to Rattus norvegicus. The experiment in a line: Antialzheimer activity in Sprague-Dawley rat assessed as reduction of total amylod beta level in cerebrospinal fluid at 10 mg/kg, po after 3 hrs by immunoassay relative to vehicle-treated control. The format is functional. Set-up: scale not given: the % may be the effect or the level left.

These results are taken from ChEMBL document CHEMBL3627709, “Discovery of a Novel, Potent Spirocyclic Series of γ-Secretase Inhibitors” (J Med Chem, 2015).

Calls of active or inactive are those of the source. No cut-off for these calls is given here. Where only a bound is given, the exact number is not on record here.

The term IC50 denotes the midpoint of a concentration-inhibition curve. Usually AUC(0-t) stands for exposure summed from dosing to a finite time, without extrapolation to infinity.

As for `O=S(=O)(c1ccc(Cl)cc1)[C@@]12CCCC(CO)(CO)[C@@H]1COc1c(F)ccc(F)c12`, the 50% inhibitory concentration (IC50) at Gamma-secretase [1] was 0.251 µM; against Cytochrome P450 2D6 [2], greater than 30 µM; at Cytochrome P450 2C9 [3], 23.4 µM; at Cytochrome P450 3A4 [4], 11 µM; on Cytochrome P450 2D6 [5], greater than 30 µM; against Cytochrome P450 3A4 [6], 11.5 µM. On Cytochrome P450 2C9 [7], the IC50 is 21.1 µM. Further, in data set [8], the “inhibition (INH)” value is “Not Active”.

`O=S(=O)(N1CC[C@]2(CCC[C@@]3(S(=O)(=O)c4ccc(Cl)cc4)c4c(F)ccc(F)c4OC[C@@H]23)C1)C(F)(F)F`: the IC50 at Gamma-secretase [1] is 0.0233 µM; against Cytochrome P450 2D6 [2], greater than 30 µM; at Gamma-secretase [9] it was 0.008 µM; on Cytochrome P450 2C9 [3], greater than 30 µM; on Cytochrome P450 3A4 [4], greater than 30 µM; at Gamma-secretase [10], 0.013 µM. In addition, the figures for the IC50 at Cytochrome P450 2D6 [5], at Cytochrome P450 3A4 [6] and against Cytochrome P450 2C9 [7] were greater than 30 µM, greater than 20 µM and greater than 30 µM, respectively. Further, the “inhibition (INH)” value in data set [8] is recorded as “Not Active”.

Regarding `O=S(=O)(NC[C@@H]1OCC[C@@]2(S(=O)(=O)c3ccc(Cl)cc3)c3c(F)ccc(F)c3OC[C@@H]12)C(F)(F)F`, the IC50 is 30 µM against Cytochrome P450 2D6 [2]; 2.5 µM on Cytochrome P450 2C9 [3]; greater than 30 µM at Cytochrome P450 3A4 [4]; 17.9 µM on Cytochrome P450 2D6 [5]; 21.4 µM against Cytochrome P450 3A4 [6]; 4.9 µM at Cytochrome P450 2C9 [7].

As to `O=S(=O)(c1ccc(Cl)cc1)[C@@]12CCCC3(COC3)[C@@H]1COc1c(F)ccc(F)c12`, the concentration for half-maximal inhibition (IC50) was 0.0101 µM at Gamma-secretase [1], 0.007 µM at Gamma-secretase [9] and 0.013 µM on Gamma-secretase [10]. For the same molecule, the AUC entry in the data set with Rattus norvegicus [11] is listed as “BLD”. In data set [8], the “inhibition (INH)” value is given as “Not Active”.

As for `O=S(=O)(c1ccc(Cl)cc1)C1(c2cc(F)ccc2F)CCCCC1`, the 50% inhibitory concentration (IC50) came to 0.0141 µM on Gamma-secretase [1], 0.027 µM on Gamma-secretase [9] and 0.041 µM on Gamma-secretase [10]. For the same molecule, in the data set on Rattus norvegicus [12], the result was inactive. In addition, the AUC result in the data set on Rattus norvegicus [11] was “BLD”. The Ratio IC50 in the data set filed under Homo sapiens stood at 1.

With `O=S(=O)(N[C@H]1CC[C@@](c2cc(F)ccc2F)(S(=O)(=O)c2ccc(Cl)cc2)CC1)C(F)(F)F`, the IC50 against Cytochrome P450 2D6 [2] is greater than 30 µM; at Cytochrome P450 2C9 [3], less than 0.3 µM; at Cytochrome P450 2D6 [5], greater than 30 µM; against Cytochrome P450 2C9 [7], less than 0.3 µM. Besides, the Activity in the data set on Rattus norvegicus [13] is recorded as 71%. Also, the area under the curve AUC(0-t) at 6 h in data set [14] is 2.35 µM·h. Besides, the Kp in [15] stood at 0.2.

In the case of `O=S(=O)(c1ccc(Cl)cc1)[C@@]12CCC[C@]3(CCOC3)[C@@H]1COc1c(F)ccc(F)c12` (stereo in doubt; (+)-14b), the values for the IC50 at Gamma-secretase [1], at Gamma-secretase [9] and on Gamma-secretase [10] were 0.142 µM, 0.063 µM and 0.104 µM, respectively.

Turning to `O=S(=O)(c1ccc(Cl)cc1)[C@@]12CCC[C@]3(CCOC3)[C@@H]1COc1c(F)ccc(F)c12` (stereo in doubt; (-)-14b), the half-maximal inhibitory concentration (IC50) on Gamma-secretase [1] is 0.0139 µM; on Cytochrome P450 2D6 [2], greater than 20 µM; at Gamma-secretase [9], 0.003 µM; on Cytochrome P450 2C9 [3] it was greater than 20 µM; at Cytochrome P450 3A4 [4], greater than 20 µM; at Gamma-secretase [10] it was 0.006 µM. In addition, the IC50 on Cytochrome P450 2D6 [5], against Cytochrome P450 3A4 [6] and against Cytochrome P450 2C9 [7] was greater than 20 µM in each case. For the same molecule, the Activity is on record as 29% in the data set on Rattus norvegicus [13] and 10% in the data set with Rattus norvegicus [16]. Further, in [8], the “inhibition (INH)” value is “Not Active”.

With `CC1(C)OCC2(CCC[C@@]3(S(=O)(=O)c4ccc(Cl)cc4)c4c(F)ccc(F)c4OC[C@@H]23)CO1`, the IC50 on Gamma-secretase [1] stood at 0.0666 µM; at Gamma-secretase [9], 0.012 µM; on Gamma-secretase [10], 0.033 µM. The “inhibition (INH)” value in data set [8] was “Not Active”.

Take `O=S1(=O)CCC2(CCC[C@@]3(S(=O)(=O)c4ccc(Cl)cc4)c4c(F)ccc(F)c4OC[C@@H]23)CC1`: the IC50 against Cytochrome P450 2D6 [2], at Cytochrome P450 2C9 [3], on Cytochrome P450 3A4 [4], at Cytochrome P450 2D6 [5], on Cytochrome P450 3A4 [6] and against Cytochrome P450 2C9 [7] was greater than 20 µM in each case. Further, in the data set with Rattus norvegicus [12], the result was inactive. In addition, in data set [14], the exposure AUC(0-t) at 6 h was found to be 3.31 µM·h. In addition, the “inhibition (INH)” value in data set [8] is “Not Active”. In data set [15], the Kp is 0.2.

In the case of `O=S(=O)(N[C@@H]1CC[C@@]2(S(=O)(=O)c3ccc(Cl)cc3)c3c(F)ccc(F)c3OC[C@H]2C1)C(F)(F)F`, the concentration for half-maximal inhibition (IC50) against Cytochrome P450 2D6 [2] was greater than 30 µM; at Cytochrome P450 2C9 [3], less than 0.3 µM; at Cytochrome P450 3A4 [4], 9.6 µM; on Cytochrome P450 2D6 [5] it was greater than 30 µM; at Cytochrome P450 3A4 [6], 3.5 µM; against Cytochrome P450 2C9 [7], less than 0.3 µM.

On to `O=S(=O)(c1ccc(Cl)cc1)[C@@]12CCCC3(CCSCC3)[C@@H]1COc1c(F)ccc(F)c12`, for which the IC50 at Gamma-secretase [1] was 0.0264 µM; on Gamma-secretase [9] it was 0.005 µM; on Gamma-secretase [10], 0.017 µM. For the same molecule, the result in the data set with Rattus norvegicus [12] was inactive. Besides, the AUC entry in the data set with Rattus norvegicus [11] was “BLD”. In [8], the “inhibition (INH)” value is “Not Active”.

Consider `O=C1OCC[C@]12CCC[C@@]1(S(=O)(=O)c3ccc(Cl)cc3)c3c(F)ccc(F)c3OC[C@@H]21`, for which the half-maximal inhibitory concentration (IC50) is 0.228 µM at Gamma-secretase [1]; greater than 30 µM on Cytochrome P450 2D6 [2]; greater than 30 µM on Cytochrome P450 2C9 [3]; greater than 30 µM at Cytochrome P450 3A4 [4]; greater than 30 µM on Cytochrome P450 2D6 [5]; greater than 30 µM against Cytochrome P450 3A4 [6]. Also, the IC50 at Cytochrome P450 2C9 [7] is greater than 30 µM. In data set [8], the “inhibition (INH)” value is “Not Active”.
